Test system: rat primary hepatic solid tumor cells
Test: Chemical assay on high-density cell array substrate (cell morphology after microdispensed dichlorobenzene)
Assay type: cell-based
Settings: after 10 minutes, 37° C., 0-4.5 mM in steps of 0.5 mM in 10 pl culture medium, single cells on substrates of Examples 1-5
Method: Poly-N-isopropylacrylamide, polyacrylamide and polydimethylsiloxane were used as cell adhesive polymer, hydrophilic polymer and highly hydrophobic polymer, respectively. These solutions were used for preparing each layer by the procedure described below. First, a solution of N-isopropylacrylamide monomer in isopropyl alcohol at the concentration shown in Table 1 was applied on a polystyrene base in an amount of 0.01 ml/cm^2 in order to prepare a cell adhesive polymer-coated domain. The coating was irradiated with electron beams at a dose of 0.25 MGy to coat the surface of the base with poly-N-isopropylacrylamide. After irradiation, the substrate was thoroughly washed with water and dried to give a substrate having a poly-N-isopropylacrylamide layer. Then, a solution of acrylamide monomer in isopropyl alcohol at the concentration shown in Table 1 was applied on the substrate in an amount of 0.01 ml/cm^2 in order to prepare a cell non-adhesive hydrophilic polymer-coated domain on the preceding layer. The coating was irradiated with electron beams at a dose similar to the value used in the method described above and then washed and dried to give a substrate having a polyacrylamide layer on the poly-N-isopropylacrylamide layer. […]

For dichlorobenzene, the “dichlorobenzene concentration in culture medium at which cells were morphologically altered” value was no less than 2.5 mM.

Reference: US20060240400A1, “High-density cell array board, process for producing the same and method of using the same” (priority 2003, published 2006)
